The text below walks through data of patent publication US20250082761A1, “DUAL-TARGETED RNA POLYMERASE INHIBITORS: CONJUGATES OF BENZOXAZINO- AND SPIRO-RIFAMYCINS WITH N ALPHA-AROYL-N-ARYL-[…]” (priority 2021, published 2025).

Data set [1] relates to CYP3A4. The data set can be described thus: in vitro. The conditions noted are these: male, human, hepatocytes.
The subject of data set [2] is Mycobacterium abscessus IDR-1400012185. The class given is cell-based. Also on record: unit not given here.
In data set [3] the test system is Mycobacterium tuberculosis H37Rv. The data set can be described thus: microbe, parasite or virus in culture. It counts as cell-based. The conditions noted are these: read-out: antibacterial activity M. tuberculosis H37Rv MIC.
Data set [4] concerns Mycobacterium avium ATCC 25291. Nature of the data set: Microplate Alamar Blue MIC assay, M. avium. The class given is cell-based. The conditions noted are these: unit not given. (In general: Alamar Blue is a resazurin reagent that responds to reducing activity.)

pIC50: −log10 of the molar value. In brackets after ≈: the same amount, converted by molar mass.

Usually pIC50 stands for the negative decadic logarithm of the IC50, by convention in mol/L. Regarding `[2H]C([2H])(c1ccccc1)[C@@H](NC(=O)c1ccccc1F)C(=O)Nc1cc(F)ccc1N1CCN(c2cc(O)c3nc4c5c6c7c(C)c(O)c5c(=O)c(c-4oc3c2)NC(=O)/C(C)=C\C=C\[C@H](C)[C@H](O)[C@@H](C)[C@@H](O)[C@@H](C)[C@H](OC(C)=O)[C@H](C)[C@@H](OC)/C=C/O[C@@](C)(O7)C6=O)CC1` [IX-511a, 3'-hydroxy-benzoxazinorifamycin S-(IX-370a) conjugate], the pIC50 in data set [1] was 5.00. The “antibacterial activity M. abscessus IDR-1400012185” value in data set [2] is on record as 1.56. In data set [3], the MIC was determined as 0.002 µg/mL (≈ 0.00158 µM). The “antibacterial activity M. avium ATCC 25291” value in data set [4] is 0.024.

Regarding `[2H]C([2H])(c1ccccc1)C(NC(=O)c1ccccc1F)C(=O)Nc1cc(F)ccc1N1CCC2(CC1)N=C1C(=C3NC(=O)/C(C)=C\C=C\[C@H](C)[C@H](O)[C@@H](C)[C@@H](O)[C@@H](C)[C@H](OC(C)=O)[C@H](C)[C@@H](OC)/C=C/O[C@]4(C)Oc5c(C)c(O)c(c1c5C4=O)C3=O)N2` (stereo partly drawn) [IX-515, spirorifamycin S-(IX-513) conjugate], the negative-log IC50 (pIC50) in data set [1] was less than 5.00. The “antibacterial activity M. abscessus IDR-1400012185” value in data set [2] is recorded as 6.25. Moreover, the MIC in data set [3] is 0.031 µg/mL (≈ 0.0265 µM). Further, the “antibacterial activity M. avium ATCC 25291” value in data set [4] is on record as 0.78.

The compound `[2H]C([2H])(c1ccccc1)[C@@H](NC(=O)c1ccccc1F)C(=O)Nc1cc(F)ccc1N1CCN(c2ccc3nc4c5c6c7c(C)c(O)c5c(=O)c(c-4oc3c2)NC(=O)/C(C)=C\C=C\[C@H](C)[C@H](O)[C@@H](C)[C@@H](O)[C@@H](C)[C@H](OC(C)=O)[C@H](C)[C@@H](OC)/C=C/O[C@@](C)(O7)C6=O)CC1` [IX-516a, benzoxazinorifamycin S-(IX-370a) conjugate] gave a negative-log IC50 (pIC50) in data set [1] of 5.00. Besides, in data set [2], the “antibacterial activity M. abscessus IDR-1400012185” value turned out to be 3.13. For the same compound, the MIC in data set [3] was determined as 0.031 µg/mL (≈ 0.0248 µM).

In the case of `[2H]C([2H])(c1ccccc1)[C@@H](NC(=O)c1ccccc1F)C(=O)Nc1cc(F)ccc1N1CCN(c2cc(O)c3nc4c5c6c7c(C)c(O)c5c(=O)c(c-4oc3c2)NC(=O)/C(C)=C\C=C\[C@H](C)[C@H](O)[C@@H](C)[C@@H](O)[C@@H](C)[C@H](O)[C@H](C)[C@@H](OC)/C=C/O[C@@](C)(O7)C6=O)CC1` [IX-519a, desacetyl-3′-hydroxy-benzoxazinorifamycin S-(IX-370a) conjugate], the MIC in data set [3] is 0.024 µg/mL (≈ 0.0196 µM).

On to `CO[C@H]1/C=C/O[C@@]2(C)Oc3c(C)c(O)c4c(O)c(c(/C=N/N5CCN(C)CC5)c(O)c4c3C2=O)NC(=O)/C(C)=C\C=C\[C@H](C)[C@H](O)[C@@H](C)[C@@H](O)[C@@H](C)[C@H](OC(C)=O)[C@@H]1C` [rifampin, reference compound], for which the “antibacterial activity M. abscessus IDR-1400012185” value in data set [2] was 1.56. For the same compound, the MIC in data set [3] came to 0.063 µg/mL (≈ 0.0766 µM). Further, the “antibacterial activity M. avium ATCC 25291” value in data set [4] is 0.024.
